Measured values from article PMC11920646 (Frontiers in Pharmacology, 2025).
Values joined by “and” are separate entries in the source; they are usually repeats but may differ in a detail not shown here. Equal values may be shown once.

Experiments:
human PR = target: T1, human PR (Homo sapiens, UniProt P06401); experiment: PR reporter gene (transactivation) assay, CHO-Gal4/PR; format: cell-based; conditions: up to 10 µM
T1 construct: host or cells: CHO (DSMZ ACC-110), CHO-Gal4/PR
T1 sequence (P06401 679-913 limits assumed): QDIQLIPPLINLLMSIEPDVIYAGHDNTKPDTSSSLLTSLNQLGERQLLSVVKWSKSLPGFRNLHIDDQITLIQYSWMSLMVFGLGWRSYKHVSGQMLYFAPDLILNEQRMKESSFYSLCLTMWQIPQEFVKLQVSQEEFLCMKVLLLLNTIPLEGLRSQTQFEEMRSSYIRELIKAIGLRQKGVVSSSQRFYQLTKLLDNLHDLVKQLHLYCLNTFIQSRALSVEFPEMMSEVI
Source text: (§1) To create the CHO-Gal4/GR, CHO-Gal4/PR, and CHO-Gal4/MR reporter cell lines, first CHO cells were stably transfected with a GAL4-UAS-luciferase reporter construct. Then, the LBD of the GR, PR, or MR (GR Gene ID: 2908, PR Gene ID: 5241, MR Gene ID: 4306, respectively) was cloned into pIRES2-EGFP-GAL4 containing the DBD of GAL4 from pFA-AT2, and then co-transfected into the luciferase-reporter construct-containing CHO cells. These reporter cell lines express the respective nuclear hormone receptor LBD-DBD fusion proteins that control luciferase expression of a GAL4-upstream activation sequence (UAS)-luciferase reporter construct, allowing for detection of ligand- or compound-induced transactivation at the GR, PR, or MR by measuring luciferase activity.
(§2) Cryo-preserved CHO-Gal4/GR, CHO-Gal4/PR, and CHO-Gal4/MR cells were plated in medium at 7,500 cells/well in 384-well assay plates (25 μL/well), and incubated for 24 h. […] Following a 4-h incubation, cells were lysed and luminescence measured using the EMCCD camera FLIPR®Tetra (Molecular Devices, Silicon Valley, CA, United States).
(§3) Transactivation (i.e., gene activation) was expressed as a percentage of the reference agonist activity (Supplementary Material), using Genedata Screener® v15.0.5 software (Basel, Switzerland).
(§4) Transactivation was calculated according to this equation: […]

human MR = target: T2, human MR (Homo sapiens, UniProt P08235); experiment: MR reporter gene (transactivation) assay, CHO-Gal4/MR; format: cell-based
T2 construct: host or cells: CHO (DSMZ ACC-110), CHO-Gal4/MR
T2 sequence (P08235 726-964 limits assumed): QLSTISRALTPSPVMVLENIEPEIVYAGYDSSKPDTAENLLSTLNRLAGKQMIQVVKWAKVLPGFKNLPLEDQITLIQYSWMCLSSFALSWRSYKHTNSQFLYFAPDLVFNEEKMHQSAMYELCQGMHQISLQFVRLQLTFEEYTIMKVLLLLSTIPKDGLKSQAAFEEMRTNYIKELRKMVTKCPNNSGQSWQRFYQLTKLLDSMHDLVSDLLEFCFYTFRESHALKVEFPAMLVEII
Source text: as §1, §2, §3, §4

[1] = test system: LPS-induced IFN-γ release in human whole blood; experiment: Inhibition of LPS-induced IFN-γ release in human whole blood; format: cell-based; conditions: 24 h
[2] = test system: IL-1β–induced IL-6 release in A549 cells; experiment: Inhibition of IL-1β–induced IL-6 release in A549 cells; format: cell-based, human
Method: Cells from the human lung epithelial cell line A549 (CCL-185, ATCC) were seeded in 96-well plates at a density of […] in F12K Nutrient Mix (Gibco™, ThermoFisher Scientific, Waltham, MA, United States) with 10% fetal calf serum (FCS), and cultured for 24 h in standard conditions. […] After 30 min’ incubation, human IL-1β (1 ng/mL final concentration) was added at 50 µL/well, followed by a 20 h-incubation in standard conditions. Human IL-6 was measured in the collected supernatant using the human AlphaLISA® immunoassay kit (PerkinElmer; Supplementary Material).
Per the human AlphaLISA® (PerkinElmer) immunoassay kit instructions, the immuno-assay buffer was diluted 1:10 in water and the human IL-6 analyte standard was diluted in FCS-free F12K nutrient mix (30,000–10 pg/mL). Each standard dilution or sample (5 μL each) was added to the wells of a 96-well polystyrene compound plate, to which 20 µL of the test mix 1 (containing anti-IL-6 acceptor beads and biotinylated anti-IL-6 antibody diluted 1:200 in immuno-assay-buffer) was added to each well and incubated for 1 h at room temperature. Afterwards, donor beads were diluted 1:62.5 in immuno-assay-buffer and 25 µL were transferred to each well. After a 30-min incubation at room temperature, the plates were read using an EnVision Multilabel Reader® (PerkinElmer) equipped with the ALPHA option.

[3] = test system: tyrosine aminotransferase (TAT) activity in HepG2 cells; experiment: Induction of TAT enzyme activity in HepG2 cells; format: cell-based, human; conditions: for EC50: 24 h; for Efficacy, induction of TAT enzyme activity: relative to dexamethasone, GRM-01 maximum at 10 µM
Method: TAT is a key enzyme in gluconeogenesis under the control of glucocorticoids and their interaction with the GR ([Panin and Usynin, 2008]), where induction of TAT expression is mediated through GR transactivation.
HepG2 cells were seeded at 20,000 cells/well in an Eagles’ minimal essential medium (EMEM)-based cell culture medium (Supplementary Material) in 96-well plates and incubated for 24 h in standard conditions. […] Medium was removed, cells washed with 50 μL of phosphate buffered saline (PBS) solution and lysis buffer added (45 µL/well) for a 20-min incubation in agitation at 1,200 rpm at room temperature. Detection buffer (150 µL/well) was added for a 2-h incubation after which the reaction was stopped, followed by a 30-min incubation, all at 37°C. This reaction solution was transferred to an absorbance detection plate (5 µL/well) to measure TAT expression (Envision plate reader, PerkinElmer).
The HepG2 cell culture medium was comprised of 500 mL of Eagles’ minimal essential medium (EMEM) without L-glutamine, 5 mL of 100X penicillin/streptomycin, 5 mL of Ultraglutamine I Supplement 200 mM, 5 mL of non-essential amino acids (NEAA) 100X (all from Lonza), and 50 mL of FBS (Sigma).
% activation= compound -minmax- min ×100
where min = TAT expression in medium only, max = TAT expression after stimulation with dexamethasone

[4] = test system: IL-6 release in A549 cells; parameters: method as in Hu et al., 2011; conditions: dagrocorat study ref Hu et al., 2011; cited from earlier work

- PR transactivation (human PR): no detectable transactivation
- EC50 (human MR; 4-h incubation): 11.8 ± 3.2 nM
- MR transactivation, mean activation (human MR; % of reference agonist fludrocortisone): 66.4 ± 4.7%
- IC50 [1]: 13.4 ± 7.95 nM
- IC50 ([2]; Homo sapiens, IL-1β 1 ng/mL, 20 h): 0.86 ± 0.13 nM
- EC50 [3]: 284 ± 113 nM
- EC50 ([3]; Homo sapiens, HepG2, 24 h): 283 nM
SMILES: C[C@]12C=CC(=O)C=C1CC[C@@H]1[C@@H]2[C@@H](O)C[C@@]2(C)[C@H]1CC[C@]2(O)C(=O)CO [Prednisolone]
- Inhibition of LPS-induced IFN-γ release [1]: 99.3 ± 2.8%
- Inhibition of LPS-induced IFN-γ release ([1]; listed as prednisolone): 99%
- Inhibition of IL-1β–induced IL-6 release ([2]; 100% = 1 μM dexamethasone): 101 ± 2.7%
- Efficacy, induction of TAT enzyme activity [3]: 92.4 ± 5.3%
- Efficacy, induction of TAT enzyme activity ([3]; listed as prednisolone): 92.4% and 92%
- inhibition of IL-6 release in A549 cells [4]: 100%
